Data on 23 compounds can be found in patent publication US11773127B2, “Compounds and methods for treating bacterial infections” (Washington University, priority 2017, dated 2023).

For the assay, the target named is T1, FmlHLD (Escherichia coli, UniProt P77588).
T1 construct: 6xHis (C); made in house; host or cells: E. coli C600, periplasm, pTRC99a
As to the kind of experiment: biochemical. Format: binding, E. coli. To be noted: for inhibition at 100 µM: read-out: % Inhibition at [μM] [100], compound at 100 μM; for inhibition at 10 µM: read-out: % Inhibition at [μM] [10], compound at 10 μM; for inhibitory potency against FmlH, in words: ELISA-based competition assay; for IC50: IC50 (μM). The procedure, abridged: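 Sialidase-treated bovine submaxillary mucin (ds-BSM) coated wells, BSA-blocked, then biotinylated FmlH^LD (20 μg/mL) with or without compound for 1 h at room temperature. Bound lectin detected by streptavidin-HRP/TMB, A450.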

The mark [1] stands for this setting: inhibition of FmlHLD binding to ds-BSM.
The mark [2] stands for this setting: read-out: % Inhibition at [μM] [1], compound at 1 μM, inhibition of FmlHLD binding to ds-BSM.
The mark [3] stands for this setting: Table 5, Gal and GalNAc inhibition of FmlH.
[4] abbreviates: Table 6, sulfonamides 3078-3090.

Molecules are shown by their SMILES. Like-named read-outs stand apart in the source and are kept apart here.

T1 sequence (P77588 25-182): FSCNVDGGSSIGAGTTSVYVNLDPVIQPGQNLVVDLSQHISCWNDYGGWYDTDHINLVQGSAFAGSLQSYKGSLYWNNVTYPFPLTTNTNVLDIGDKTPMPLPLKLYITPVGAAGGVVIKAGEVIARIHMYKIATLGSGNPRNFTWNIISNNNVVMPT

Usually inhibition stands for the share of the control response that was lost under treatment. On to `Cc1ccccc1O[C@H]1O[C@H](CO)[C@H](O)[C@H](O)[C@H]1O` [Compound 135a], for which the inhibition at 100 µM under setting [1] came to 30%.

As to `Cc1ccccc1O[C@@H]1O[C@H](CO)[C@H](O)[C@H](O)[C@H]1O` [Compound 135b], under setting [2], the inhibition at 1 µM was determined as 1.81%. Besides, under setting [1], the inhibition at 10 µM is 28.2% and the inhibition at 100 µM worked out at 87.3%.

On to `N#Cc1ccccc1O[C@H]1O[C@H](CO)[C@H](O)[C@H](O)[C@H]1O` [Compound 137a], for which, under setting [1], the inhibition at 100 µM came out at 17.8%.

In the case of `N#Cc1ccccc1O[C@@H]1O[C@H](CO)[C@H](O)[C@H](O)[C@H]1O` [Compound 137b], the inhibition at 1 µM under setting [2] worked out at 12.1%. Under setting [1], the inhibition at 10 µM turned out to be 30.4% and the inhibition at 100 µM stood at 94.5%.

For the compound `COc1cc(OC)cc(O[C@@H]2O[C@H](CO)[C@H](O)[C@H](O)[C@H]2O)c1` [Compound 151d], under setting [1], the inhibition at 10 µM was 11.7% and the inhibition at 100 µM stood at 76.4%.

Regarding `N#Cc1ccc(O[C@@H]2O[C@H](CO)[C@H](O)[C@H](O)[C@H]2O)cc1` [Compound 152b], the inhibition at 1 µM under setting [2] was 9.47%. Under setting [1], the inhibition at 10 µM is 19.2% and the inhibition at 100 µM was determined as 85.7%.

Take `Cc1ccc(O[C@@H]2O[C@H](CO)[C@H](O)[C@H](O)[C@H]2O)cc1` [Compound 153a]: the inhibition at 1 µM under setting [2] is 4.59%. Under setting [1], the inhibition at 10 µM came to 16.5% and the inhibition at 100 µM came out at 85.8%.

With `OC[C@H]1O[C@@H](Oc2ccccc2Cl)[C@H](O)[C@@H](O)[C@H]1O` [Compound 154c], the inhibition at 1 µM under setting [2] came to 7.95%. Besides, under setting [1], the inhibition at 10 µM stood at 20.7% and the inhibition at 100 µM was found to be 90.5%.

On to `O=C(O)c1cccc(-c2ccccc2O[C@H]2O[C@H](CO)[C@H](O)[C@H](O)[C@H]2O)c1` [Compound 200a], for which, under setting [1], the inhibition at 100 µM stood at 26.2%.

Broadly, the IC50 is the midpoint of a concentration-inhibition curve. Turning to `COc1ccc(C(=O)O)cc1-c1ccccc1O[C@@H]1O[C@H](CO)[C@H](O)[C@H](O)[C@H]1NC(C)=O` [Compound 2051, 2′-(((2S,3R,4R,5R,6R)-3-acetamido-4,5-dihydroxy-6-(hydroxymethyl)tetrahydro-2H-pyran-2-yl)oxy)-6-methoxy-[1,1′-biphenyl]-3-carboxylic acid], the “inhibitory potency against FmlH, in words” value was “weakest activity”. This compound also yielded an IC50 under setting [3] of 3.87 µM. Also, the “drop in activity relative to 29β-NAc” value (IC50 ratio) was found to be 6 fold. Besides, the inhibition at 0.1 µM (read-out: PI (0.1) (average percent inhibition), compound at 100 nM, Table 4) worked out at 0%. For the setting “read-out: PI(1) (average percent inhibition), compound at 1 μM, Table 4”, the inhibition at 1 µM worked out at 15.9%.

In turn, `CC(=O)N[C@@H]1[C@H](Oc2ccccc2-c2cc(C(=O)O)cc([N+](=O)[O-])c2)OC(CO)[C@H](O)[C@@H]1O` (stereo partly drawn) [Compound 3029, 2′-(((2S,3S,4R,5R)-3-acetamido-4,5-dihydroxy-6-(hydroxymethyl)tetrahydro-2H-pyran-2-yl)oxy)-5-nitro-[1,1′-biphenyl]-3-carboxylic acid] had an IC50 under setting [3] of 2.2 µM.

Compound `CC(=O)N[C@@H]1[C@H](Oc2ccccc2-c2cccc(NC(=O)C(F)(F)F)c2)OC(CO)[C@H](O)[C@@H]1O` (stereo partly drawn) [Compound 3044, N-(2′-(((2S,3S,4R,5R)-3-acetamido-4,5-dihydroxy-6-(hydroxymethyl)tetrahydro-2H-pyran-2-yl)oxy)-[1,1′-biphenyl]-3-yl)-2,2,2-trifluoroacetamide] gave an IC50 under setting [3] of 0.37 µM.

Take `CC(=O)N[C@H]1[C@H](Oc2ccccc2-c2cccc(NS(=O)(=O)C(F)(F)F)c2)O[C@H](CO)[C@H](O)[C@@H]1O` [Compound 3049, N-((2S,3R,4R,5R,6R)-4,5-dihydroxy-6-(hydroxymethyl)-2-((3′-((trifluoromethyl)sulfonamido)-[1,1′-biphenyl]-2-yl)oxy)tetrahydro-2H-pyran-3-yl) acetamide]: the IC50 under setting [3] was found to be 1.17 µM.

In the case of `CC(=O)N[C@H]1[C@H](Oc2cccc([N+](=O)[O-])c2-c2cccc(NS(C)(=O)=O)c2)O[C@H](CO)[C@H](O)[C@@H]1O` [Compound 3078, N-((2S,3R,4R,5R,6R)-4,5-dihydroxy-6-(hydroxymethyl)-2-((3′-(methylsulfonamido)-6-nitro-[1,1′-biphenyl]-2-yl)oxy)tetrahydro-2H-pyran-3-yl)acetamide], it took 0.11 µM to reach half-maximal inhibition under setting [4] (IC50).

Under setting [4], `CC(=O)N[C@@H]1[C@H](Oc2cccc(C(=O)OCc3ccccc3)c2-c2cccc(NS(C)(=O)=O)c2)OC(CO)[C@H](O)[C@@H]1O` (stereo partly drawn) [Compound 3081, Benzyl 6-(((2S,3S,4R,5R)-3-acetamido-4,5-dihydroxy-6-(hydroxymethyl)tetrahydro-2H-pyran-2-yl)oxy)-3′-(methylsulfonamido)-[1,1′-biphenyl]-2-carboxylate] came in with an IC50 of 0.18 µM.

With `CC(=O)N[C@@H]1[C@H](Oc2cccc(C(=O)O)c2-c2cccc(NS(C)(=O)=O)c2)OC(CO)[C@H](O)[C@@H]1O` (stereo partly drawn) [Compound 3082, 6-(((2S,3S,4R,5R)-3-acetamido-4,5-dihydroxy-6-(hydroxymethyl)tetrahydro-2H-pyran-2-yl)oxy)-3′-(methylsulfonamido)-[1,1′-biphenyl]-2-carboxylic acid], the IC50 under setting [4] is 0.13 µM.

For `COc1cccc(O[C@@H]2OC(CO)[C@H](O)[C@H](O)[C@@H]2NC(C)=O)c1-c1cccc(NS(C)(=O)=O)c1` (stereo partly drawn) [Compound 3083, N-((2S,3S,4R,5R)-4,5-dihydroxy-6-(hydroxymethyl)-2-((6-methoxy-3′-(methylsulfonamido)-[1,1′-biphenyl]-2-yl)oxy)tetrahydro-2H-pyran-3-yl)acetamide], 0.15 µM corresponded to half-maximal inhibition under setting [4] (IC50).

On to `CC(=O)N[C@H]1[C@H](Oc2ccc3ccccc3c2-c2cccc(NS(C)(=O)=O)c2)O[C@H](CO)[C@H](O)[C@@H]1O` [Compound 3085, N-((2S,3R,4R,5R,6R)-4,5-dihydroxy-6-(hydroxymethyl)-2-((1-(3-(methylsulfonamido)phenyl)naphthalen-2-yl)oxy)tetrahydro-2H-pyran-3-yl)acetamide], for which the IC50 under setting [4] is 0.18 µM.

On to `CC(=O)N[C@@H]1[C@H](Oc2cccc(C)c2-c2cccc(NS(=O)(=O)N(C)C)c2)OC(CO)[C@H](O)[C@@H]1O` (stereo partly drawn) [Compound 3087, N-((2S,3S,4R,5R)-2-((3′-((N,N-dimethylsulfamoyl)amino)-6-methyl-[1,1′-biphenyl]-2-yl)oxy)-4,5-dihydroxy-6-(hydroxymethyl)tetrahydro-2H-pyran-3-yl)acetamide], for which the “inhibitory potency against FmlH, in words” value is listed as “retain the same activity as the methyl sulfonamides”. This compound also gave an IC50 under setting [4] of 0.13 µM.

Under setting [4], `Cc1cccc(O[C@@H]2O[C@H](CO)[C@H](O)[C@H](O)[C@H]2NS(C)(=O)=O)c1-c1cccc(NS(C)(=O)=O)c1` [Compound 3089, N-((2S,3R,4R,5R,6R)-4,5-dihydroxy-6-(hydroxymethyl)-2-((6-methyl-3′-(methylsulfonamido)-[1,1′-biphenyl]-2-yl)oxy)tetrahydro-2H-pyran-3-yl)methanesulfonamide] returned an IC50 of 3.5 µM.

As for `Cc1c(C)c2ccc(O[C@@H]3O[C@H](CO)[C@H](O)[C@H](O)[C@H]3O)cc2oc1=O` [Compound D715-0293, reference compound], the inhibition at 1 µM under setting [2] was determined as 10.2%. Besides, under setting [1], the inhibition at 10 µM was 19.8% and the inhibition at 100 µM came out at 89.2%.

In the case of `CC1=CC(=O)Cc2c1cc(F)c(O[C@@H]1O[C@H](CO)[C@H](O)[C@H](O)[C@H]1O)c2F` [DiF-MUG, reference compound], under setting [1], the inhibition at 10 µM came to 0.85% and the inhibition at 100 µM is 49.7%.

For `OC[C@H]1O[C@@H](Oc2cccc3ccncc23)[C@H](O)[C@@H](O)[C@H]1O` [EXW020a], under setting [1], the inhibition at 100 µM was 15.2%.
